US8044052B2, “Biaryl ether urea compounds” (Pfizer Inc., priority 2006, dated 2011)
Counter-ions that a name gives are not always drawn.

target: T1, Human FAAH (Homo sapiens, UniProt O00519); test: FAAH assay (glutamate dehydrogenase-coupled, oleamide substrate, absorbance at 340 nm); format: biochemical; conditions: irreversible inhibition, 1-4 nM FAAH, pH 7.4, 30° C., 90 min
T1 construct: made in house
T1 sequence (O00519 1-579): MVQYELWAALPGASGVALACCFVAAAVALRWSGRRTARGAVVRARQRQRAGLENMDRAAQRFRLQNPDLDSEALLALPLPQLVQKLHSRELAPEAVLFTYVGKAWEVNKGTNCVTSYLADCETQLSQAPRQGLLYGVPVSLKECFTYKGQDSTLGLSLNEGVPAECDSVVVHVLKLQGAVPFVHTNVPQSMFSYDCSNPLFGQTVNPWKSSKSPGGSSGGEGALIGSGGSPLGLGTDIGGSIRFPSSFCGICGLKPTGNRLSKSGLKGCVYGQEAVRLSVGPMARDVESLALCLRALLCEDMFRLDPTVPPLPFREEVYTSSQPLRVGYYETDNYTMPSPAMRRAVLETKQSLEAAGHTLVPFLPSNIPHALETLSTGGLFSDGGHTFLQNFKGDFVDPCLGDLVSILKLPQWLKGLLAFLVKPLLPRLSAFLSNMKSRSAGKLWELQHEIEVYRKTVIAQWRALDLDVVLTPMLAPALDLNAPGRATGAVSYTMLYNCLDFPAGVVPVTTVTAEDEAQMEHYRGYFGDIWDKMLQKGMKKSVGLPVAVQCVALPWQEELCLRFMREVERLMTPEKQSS
Description: The FAAH assay was carried out in 384-well clear polystyrene plates in a total volume of 50 μl per well. All percents are by volume. To each well, was placed the reaction mixture (40 μl) containing 1-4 nM FAAH, 50 mM NaPi, pH 7.4, 3 mM α-ketoglutarate, 0.15 mM NADH, 7.5 U/ml glutamate dehydrogenase, 2 mM ADP, 1 mM EDTA, and 0.1% Triton X-100 (The concentration shown for each component is the final concentration in the assay). […] This was immediately followed by the addition of 5 μl oleamide (500 μM) dissolved in 75% EtOH/25% DMSO and the reaction mixture was mixed for 1.5 min. The final concentrations of DMSO and EtOH in the assay were each 7.5%.
Initial velocity data (V) were obtained from the slopes of the initial progressive curves. They were plotted as a function of substrate concentration and fit to the Michaelis-Menten equation (1) using Prism (GraphPad Software, Inc., San Diego, Calif.) software to obtain Km and Vmax values.
To obtain potencies of irreversible inhibitors, progressive curves consistent with first order inhibition kinetics (two-step irreversible inhibition mechanism) were fit to equation (2) by nonlinear least squares regressions to determine kobs values at each inhibitor concentration, where [P]t is the absorbance at time t, V0 is a constant related to the steady state rate of the uninhibited reaction, and kobs is the first order rate constant for enzyme inactivation. The inhibitor dissociation constant (Ki) and the first order rate
[formula] constant of enzyme inactivation at infinite inhibitor concentration (kinact) were then obtained by fitting the kobs vs. [I] curves to equation (3).

Row | Structure (SMILES) | hFAAH kinact/Ki [M⁻¹ s⁻¹]
1 | O=C(Nc1cccnc1)N1CCC(=Cc2cccc(Oc3ccc(OCC(F)(F)F)cc3)c2)CC1 [Example 99, N-pyridin-{3-yl-4-3-[4-(2,2,2-trifluoroethoxy)phenoxy]benzylidene}piperidine-1-carboxamide] | 1130

same assay, conditions: irreversible inhibition, 1-4 nM FAAH, pH 7.4, 30° C., 90 min, read-out: hFAAH kinact/Ki

Row | Structure (SMILES) | kinact/KI [M⁻¹ s⁻¹]
2 | Cc1cncc(NC(=O)N2CCC(=Cc3cccc(Oc4ccc(C(F)(F)F)cn4)c3)CC2)c1 [Example 7, N-(5-methylpyridin-3-yl)-4-(3-{[5-(trifluoromethyl)pyridin-2-yl]oxy}benzylidene)piperidine-1-carboxamide] | 2880
3 | O=C(Nc1cccnn1)N1CCC(=Cc2cccc(Oc3ncc(F)cn3)c2)CC1 [Example 108, 4-{3-[(5-fluoropyrimidin-2-yl)oxy]benzylidene}-N-pyridazin-3-ylpiperidine-1-carboxamide] | 1120
4 | O=C(Nc1cccnn1)N1CCC(=Cc2cccc(Oc3ccc(N4CCC4)cn3)c2)CC1 [Example 87, 4-(3-(5-(azetidin-1-yl)pyridin-2-yloxy)benzylidene)-N-(pyridazin-3-yl)piperidine-1-carboxamide] | 1840
5 | O=C(Nc1cccnn1)N1CCC(=Cc2cccc(Oc3nc(-c4ccccc4)ns3)c2)CC1 [Example 125, 4-{3-[(3-phenyl-1,2,4-thiadiazol-5-yl)oxy]benzylidene}-N-pyridazin-3-ylpiperidine-1-carboxamide] | 140
6 | O=C(Nc1ncc(Br)cc1CO)N1CCC(=Cc2cccc(Oc3ccc(C(F)(F)F)cn3)c2)CC1 [Example 132, N-[5-bromo-3-(hydroxymethyl)pyridin-2-yl]-4-(3-{[5-(trifluoromethyl)pyridin-2-yl]oxy}benzylidene)piperidine-1-carboxamide] | 105
7 | O=C(Nc1cccnc1)N1CCC(=C(c2ccccc2)c2cccc(Oc3ccc(C(F)(F)F)cn3)c2)CC1 [Example 68, 4-(phenyl(3-(5-(trifluoromethyl)pyridin-2-yloxy)phenyl)methylene)-N-(pyridin-3-yl)piperidine-1-carboxamide] | 206
8 | Cc1cccc(Oc2cccc(C=C3CCN(C(=O)Nc4cccnc4)CC3)c2)n1 [Example 40, 4-(3-(6-methylpyridin-2-yloxy)benzylidene)-N-(pyridin-3-yl)piperidine-1-carboxamide] | 554
9 | CCOc1ccc(Oc2cccc(C=C3CCN(C(=O)Nc4cccnc4)CC3)c2)nc1 [Example 47, 4-(3-(5-ethoxypyridin-2-yloxy)benzylidene)-N-(pyridin-3-yl)piperidine-1-carboxamide] | 4490
10 | O=C(Nc1cnc(-c2ccccc2)cn1)N1CCC(=Cc2cccc(Oc3ccc(C(F)(F)F)cn3)c2)CC1 [Example 21, N-(5-phenyl-pyrazin-2-yl)-4-(3-{[5-(trifluoromethyl)pyridin-2-yl]oxy}benzylidene)piperidine-1-carboxamide] | 1850
11 | O=C(Nc1ccccc1F)N1CCC(=Cc2cccc(Oc3ccc(C(F)(F)F)cn3)c2)CC1 [Example 29, 4-(3-(5-(trifluoromethyl)pyridin-2-yloxy)benzylidene)-N-(2-fluorophenyl)piperidine-1-carboxamide] | 3370
12 | Cn1ccc(NC(=O)N2CCC(=Cc3cccc(Oc4ccc(C(F)(F)F)cn4)c3)CC2)n1 [Example 77, N-(1-methyl-1H-pyrazol-3-yl)-4-(3-{[5-(trifluoromethyl)pyridin-2-yl]oxy}benzylidene)piperidine-1-carboxamide] | 339
13 | O=C(NC(=O)N1CCC(=Cc2cccc(Oc3ccc(C(F)(F)F)cn3)c2)CC1)c1ccccn1 [Example 15, N-{[4-(3-{[5-(trifluoromethyl)pyridin-2-yl]oxy}benzylidene)piperidin-1-yl]carbonyl}pyridine-2-carboxamide] | 12900
14 | O=C(Nc1ccc2nn[nH]c2c1)N1CCC(=Cc2cccc(Oc3ccc(C(F)(F)F)cn3)c2)CC1 [Example 14, N-1H-1,2,3-benzotriazol-6-yl-4-(3-{[5-(trifluoromethyl)pyridin-2-yl]oxy}benzylidene)piperidine-1-carboxamide] | 3190
15 | COc1ccc(NC(=O)N2CCC(=Cc3cccc(Oc4ccc(C(F)(F)F)cn4)c3)CC2)c(OC)n1 [Example 127, N-(2,6-dimethoxypyridin-3-yl)-4-(3-{[5-(trifluoromethyl)pyridin-2-yl]oxy}benzylidene)piperidine-1-carboxamide] | 675
16 | O=C(Nc1cccnc1)N1CCC(=Cc2cccc(Oc3ccc(Br)cn3)c2)CC1 [Example 33, 4-{3-[(5-bromopyridin-2-yl)oxy]benzylidene}-N-pyridin-3-ylpiperidine-1-carboxamide] | 26300
17 | Cc1noc(NC(=O)N2CCC(=Cc3cccc(Oc4ccc(C(F)(F)F)cc4)c3)CC2)c1C [Example 55, 4-(3-(4-(trifluoromethyl)phenoxy)benzylidene)-N-(3,4-dimethylisoxazol-5-yl)piperidine-1-carboxamide] | 1610
18 | O=C(Nc1cccnn1)N1CCC(=Cc2cccc(Oc3ccccc3)n2)CC1 [Example 91, 4-((6-phenoxypyridin-2-yl)methylene)-N-(pyridazin-3-yl)piperidine-1-carboxamide] | 636
19 | O=C(Nc1cccnc1)N1CCC(=Cc2cccc(Oc3ccc(C4CC4)cn3)c2)CC1 [Example 38, 4-(3-(5-cyclopropylpyridin-2-yloxy)benzylidene)-N-(pyridin-3-yl)piperidine-1-carboxamide] | 9180
20 | O=C(Nc1ccc(C(F)(F)F)nc1)N1CCC(=Cc2cccc(Oc3ccc(C(F)(F)F)cn3)c2)CC1 [Example 126, N-[6-(trifluoromethyl)pyridin-3-yl]-4-(3-{[5-(trifluoromethyl)pyridin-2-yl]oxy}benzylidene)piperidine-1-carboxamide] | 405
21 | O=C(Nc1cccnn1)N1CCC(=Cc2cccc(Oc3ccc(C(=O)N4CCOCC4)cn3)c2)CC1 [Example 117, 4-(3-{[5-(morpholin-4-ylcarbonyl)pyridin-2-yl]oxy}benzylidene)-N-pyridazin-3-ylpiperidine-1-carboxamide] | < 12.4
22 | O=C(Nc1ccc(Cl)nn1)N1CCC(=Cc2cccc(Oc3ccc(C(F)(F)F)cn3)c2)CC1 [Example 84, N-(6-chloropyridazin-3-yl)-4-(3-{[5-(trifluoromethyl)pyridin-2-yl]oxy}benzylidene)piperidine-1-carboxamide] | 5590
23 | O=C(Nc1ccccc1)N1CCC(=Cc2cccc(Oc3ccc(C(F)(F)F)cn3)c2)CC1 [Example 10, N-phenyl-4-(3-{[5-(trifluoromethyl)pyridin-2-yl]oxy}benzylidene)piperidine-1-carboxamide] | 3070
24 | CCc1cc(NC(=O)N2CCC(=Cc3cccc(Oc4ccc(C(F)(F)F)cn4)c3)CC2)[nH]n1 [Example 80, N-(3-ethyl-1H-pyrazol-5-yl)-4-(3-{[5-(trifluoromethyl)pyridin-2-yl]oxy}benzylidene)piperidine-1-carboxamide trifluoroacetate] | 353
25 | O=C(Nc1cccnn1)N1CCC(=Cc2cccc(Oc3ncc(-c4cccc(Cl)c4)cn3)c2)CC1 [Example 110, 4-(3-{[5-(3-chlorophenyl)pyrimidin-2-yl]oxy}benzylidene)-N-pyridazin-3-ylpiperidine-1-carboxamide] | 1020
26 | O=C(Nc1cncc(Cl)n1)N1CCC(=Cc2cccc(Oc3ccc(C(F)(F)F)cn3)c2)CC1 [Example 27, N-(6-chloropyrazin-2-yl)-4-(3-{[5-(trifluoromethyl)pyridin-2-yl]oxy}benzylidene)piperidine-1-carboxamide] | 3900
27 | Cc1cccnc1Oc1cccc(C=C2CCN(C(=O)Nc3cccnn3)CC2)c1 [Example 43, 4-(3-(3-methylpyridin-2-yloxy)benzylidene)-N-(pyridazin-3-yl)piperidine-1-carboxamide] | 1410
28 | O=C(Nc1onc2ccccc12)N1CCC(=Cc2cccc(Oc3ccc(F)cc3)c2)CC1 [Example 18, N-2,1-benzisoxazol-3-yl-4-[3-(4-fluorophenoxy)benzylidene]piperidine-1-carboxamide] | 2730
29 | Cc1ccc(NC(=O)N2CCC(=Cc3cccc(Oc4ccc(C(F)(F)F)cn4)c3)CC2)cn1 [Example 3, N-(6-methylpyridin-3-yl)-4-(3-{[5-(trifluoromethyl)pyridin-2-yl]oxy}benzylidene)piperidine-1-carboxamide] | 7800
